The values that follow come from patent US20170290891A1, “METHOD OF BONE REGENERATION OR BONE AUGMENTATION” (TOYOBO CO., LTD., priority 2016, published 2017).

In test [1] the test system is local bone formation. Conditions: subcutaneous administration of PTH; NPL 2; cited from earlier work.
The test system of test [2] is standardized full-thickness bone defect of the calvarium. The experiment in a line: Test Example 1: rat calvarium bone defect, OCP or β-TCP collagen composite + teriparatide subcutaneous injection. Format: in vivo, Male Wistar rats. From the text:
Male Wistar rats (12 weeks old) were each intraperitoneally anesthetized, and a skin incision and a periosteal incision were made in the calvarium part to expose the calvarium. A standardized full-thickness bone defect (diameter: about 9 mm), for which spontaneous recovery could not be expected, was created. Then, one OCP/collagen composite disc produced in Production Example 2 or one β-TCP/collagen composite disc produced in Production Example 3 was implanted therein. As the control, rats in which only a bone defect was created, and no sample was implanted (untreated group) were prepared. After the sample was implanted, the periosteum and skin were sutured, and the surgery was completed. […] In the rats of the teriparatide subcutaneous injection group, 10 μg/kg of the teriparatide prepared in Production Example 5 was subcutaneously injected immediately after surgery and every day thereafter. Subcutaneous injection was performed in such a manner that the thawed teriparatide solution was sucked by a 1-mL syringe (27 G injection needle), the back skin was sterilized with a dilute Hibitane solution, and then a considerable amount of teriparatide solution was injected subcutaneously in the back. The observation period after surgery was 8 weeks for each group, and 5 rats were used in each period. […] Similarly, after CT photography 8 weeks after surgery, the rats were euthanized under anesthesia with an excess amount of pentobarbital. […] Then, tissue sections (thickness: […]) cut in the frontal plane were prepared, and a histological search was performed by hematoxylin-eosin staining. Further, using the plural tissue sections corresponding to the center of the defect of each sample, the ratio of new bone (n-Bone %) in the created defect was examined by histological quantification. Variance analysis, etc., were conducted using the average value and standard deviation of n-Bone % in each group, and a significance test was conducted. The significance level was set at 5%.

As to `CC[C@H](C)[C@H](NC(=O)[C@H](CCC(=O)O)NC(=O)[C@H](CO)NC(=O)[C@@H](NC(=O)[C@@H](N)CO)C(C)C)C(=O)N[C@@H](CCC(N)=O)C(=O)N[C@@H](CC(C)C)C(=O)N[C@@H](CCSC)C(=O)N[C@@H](Cc1cnc[nH]1)C(=O)N[C@@H](CC(N)=O)C(=O)N[C@@H](CC(C)C)C(=O)NCC(=O)N[C@@H](CCCCN)C(=O)N[C@@H](Cc1cnc[nH]1)C(=O)N[C@@H](CC(C)C)C(=O)N[C@@H](CC(N)=O)C(=O)N[C@@H](CO)C(=O)N[C@@H](CCSC)C(=O)N[C@@H](CCC(=O)O)C(=O)N[C@@H](CCCN=C(N)N)C(=O)N[C@H](C(=O)N[C@@H](CCC(=O)O)C(=O)N[C@@H](Cc1c[nH]c2ccccc12)C(=O)N[C@@H](CC(C)C)C(=O)N[C@@H](CCCN=C(N)N)C(=O)N[C@@H](CCCCN)C(=O)N[C@@H](CCCCN)C(=O)N[C@@H](CC(C)C)C(=O)N[C@@H](CCC(N)=O)C(=O)N[C@@H](CC(=O)O)C(=O)N[C@H](C(=O)N[C@@H](Cc1cnc[nH]1)C(=O)N[C@@H](CC(N)=O)C(=O)N[C@@H](Cc1ccccc1)C(=O)O)C(C)C)C(C)C` [teriparatide], the local bone formation entry in test [1] was “significantly promoted”. Moreover, the “ratio of new bone (n-Bone %) in the defect” value in test [2] (8 weeks after surgery, PTH groups: teriparatide 10 μg/kg subcutaneously every day, FIG. 5) was 31.1±10.2%. Also, the “X-ray photographs of the bone defect sites, living state (radiopaque image)” value in test [2] (FIG. 1, PTH groups: teriparatide 10 μg/kg s.c. daily) is given as “radiopaque images in the defects were equally scarce”. Also, in test [2] (FIG. 2, PTH groups: teriparatide 10 μg/kg s.c. daily), the “X-ray photographs of the calvarium and the surrounding tissue (radiopaque image)” value is “their thickness was thinner than that of the existing bone”. Moreover, the “stained pathological specimens, low-magnification (×1.25)” value in test [2] (FIG. 3, 8 weeks after surgery, hematoxylin-eosin) is on record as “thin bone tissue extending from the defect margins”. Moreover, the “stained pathological specimens, high-magnification” value in test [2] (FIG. 4, 8 weeks after surgery, hematoxylin-eosin) is on record as “thin new bone extended from the defect margins”. Further, the “new bone formation (summary of FIGS. 1 to 5)” value in test [2] (teriparatide 10 μg/kg s.c. daily, 8 weeks) was “new bone formation was not observed”.
